Square brackets hold non-standard residues; d marks the D form. Ends that are not written are not given here.
Tested on: mean arterial pressure and heart rate
Experiment: In vivo blood pressure and heart rate after intravenous dosing in normotensive rats
Parameters: species or system Sprague-Dawley rats
Procedure: Male Sprague-Dawley rats obtained from Charles River Laboratories, Wilmington, Mass., and weighing 276-300 g, were group housed at 22° C. and kept on 12 hour light/dark cycle. Food and water were provided ad lib. Animals were anesthetized with sodium pentobarbital (65 mg/kg) and under sterile conditions a one-inch incision was made in the fold of the left leg to expose the femoral blood vessels. Two lengths of PE-50 tubing filled with 10% heparin were inserted into the left femoral artery and left femoral vein for measurement of blood pressure and for drug delivery, respectively. The tubings were tunneled under the skin and exposed through the mid-scapular region. Animals were allowed at least 24 hours recovery prior to experiments. A force transducer (Spectramed Model P23XL, Grass Instruments, Quincy, Mass., USA), and tachograph (Model 7P44D, Grass Instruments) was used for recording of systolic and diastolic pressures and heart rate from the femoral artery catheter. Patency of catheters was verified by flushing with either saline or 10% heparin. A dose of either 30, 100, 500, 800 or 1000 nM/kg ([…]) of NPY27-36 (D-Tyr^27,36, D-Thr^32) (prepared as described in Example 1 above), or saline was delivered to the animal via the catheter in the left femoral vein. Changes in systolic and diastolic pressures and heart rater were recorded from the catheter in the left femoral artery over a 10 minute time interval.

[1] = i.v., 30-1000 nM/kg, normotensive Sprague-Dawley rats, recorded over 10 min

D-Tyr-Ile-Asn-Leu-Ile-D-Thr-Arg-Gln-Arg-D-Tyr-NH2 ([dY]INLI[dT]RQR[dY]-NH2; N-terminus assumed; SMILES CC[C@H](C)[C@H](NC(=O)[C@H](N)Cc1ccc(O)cc1)C(=O)N[C@@H](CC(N)=O)C(=O)N[C@@H](CC(C)C)C(=O)N[C@H](C(=O)N[C@@H](C(=O)N[C@@H](CCCNC(=N)N)C(=O)N[C@@H](CCC(N)=O)C(=O)N[C@@H](CCCNC(=N)N)C(=O)N[C@H](Cc1ccc(O)cc1)C(N)=O)[C@H](C)O)[C@@H](C)CC) [NPY27-36 (D-Tyr^27,36, D-Thr^32)]
changes in pressure and heart rate vs saline treatment (i.v. doses of 30 and 100 nM/kg): failed to produce changes that were significantly different from saline treatment
mean arterial pressure vs saline-treated controls (i.v. doses of 500, 800 and 1000 nM/kg): significantly different decreases in mean arterial pressure
heart rate vs saline controls (i.v. doses of 500 and 1000 nM/kg): significantly different increases in heart rate
heart rate, dose-response [1]: increase in heart rate
mean arterial pressure, dose-response [1]: dose-dependent decrease in mean arterial pressure

From patent publication US6075009A, “Neuropeptide Y analogues, compositions and methods of lowering blood pressure” (East Carolina University, priority 1995, dated 2000)
